# System: not given
# Test: not given
# Conditions: not given
row,melting point [°C],Compound
1,192 to 195,COC(=O)c1nc(-c2ccc(Cl)nc2F)nc(N)c1Cl [Compound 94]

# System: Key Grass and Sedge Weeds as well as Grass Crops
# Test: Post-Emergent Test II (Table 6)
# Format: in vivo
# Conditions: post-emergence, 336 h, CYPSS, 70 g ai/ha, 14 days after application, read-out: Visual Growth Reduction (%) 14 Days After Application CYPSS
# Method in brief: (§1)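 Growth stage at treatment: first or second true leaf. Application: compound in acetone/DMSO diluted into an adjuvant-containing aqueous mix, sprayed at 187 L/ha at several rates. Assessment: visual 0-100% injury at 14 days against untreated plants.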
row,Compound,pest or weed control at 70 g/ha [%]
1,COC(=O)c1nc(-c2ccc(Cl)nc2F)nc(N)c1Cl [Compound 94],0 to 29

# Same assay, conditions: post-emergence, 336 h, CYPSS, 140 g ai/ha, 14 days after application, read-out: Visual Growth Reduction (%) 14 Days After Application CYPSS
row,Compound,pest or weed control at 140 g/ha [%]
1,COC(=O)c1nc(-c2ccc(Cl)nc2F)nc(N)c1Cl [Compound 94],0 to 29

# Same assay, conditions: post-emergence, 336 h, DIGSA: crabgrass (Digitaria sanguinalis), 70 g ai/ha, 14 days after application, read-out: Visual Growth Reduction (%) 14 Days After Application DIGSA
row,Compound,pest or weed control at 70 g/ha [%]
1,COC(=O)c1nc(-c2ccc(Cl)nc2F)nc(N)c1Cl [Compound 94],0 to 29

# Same assay, conditions: post-emergence, 336 h, DIGSA: crabgrass (Digitaria sanguinalis), 140 g ai/ha, 14 days after application, read-out: Visual Growth Reduction (%) 14 Days After Application DIGSA
row,Compound,pest or weed control at 140 g/ha [%]
1,COC(=O)c1nc(-c2ccc(Cl)nc2F)nc(N)c1Cl [Compound 94],0 to 29

# Same assay, conditions: post-emergence, 336 h, ECHSS, 70 g ai/ha, 14 days after application, read-out: Visual Growth Reduction (%) 14 Days After Application ECHSS
row,Compound,pest or weed control at 70 g/ha [%]
1,COC(=O)c1nc(-c2ccc(Cl)nc2F)nc(N)c1Cl [Compound 94],0 to 29

# Same assay, conditions: post-emergence, 336 h, ECHSS, 140 g ai/ha, 14 days after application, read-out: Visual Growth Reduction (%) 14 Days After Application ECHSS
row,Compound,pest or weed control at 140 g/ha [%]
1,COC(=O)c1nc(-c2ccc(Cl)nc2F)nc(N)c1Cl [Compound 94],0 to 29

# Same assay, conditions: post-emergence, 336 h, ORYSS (crop), 70 g ai/ha, 14 days after application, read-out: Visual Growth Reduction (%) 14 Days After Application ORYSS
row,Compound,pest or weed control at 70 g/ha [%]
1,COC(=O)c1nc(-c2ccc(Cl)nc2F)nc(N)c1Cl [Compound 94],0 to 29

# Same assay, conditions: post-emergence, 336 h, ORYSS (crop), 140 g ai/ha, 14 days after application, read-out: Visual Growth Reduction (%) 14 Days After Application ORYSS
row,Compound,pest or weed control at 140 g/ha [%]
1,COC(=O)c1nc(-c2ccc(Cl)nc2F)nc(N)c1Cl [Compound 94],0 to 29

# Same assay, conditions: post-emergence, 336 h, SETFA: giant foxtail (Setaria faberi), 70 g ai/ha, 14 days after application, read-out: Visual Growth Reduction (%) 14 Days After Application SETFA
row,Compound,pest or weed control at 70 g/ha [%]
1,COC(=O)c1nc(-c2ccc(Cl)nc2F)nc(N)c1Cl [Compound 94],0 to 29

# Same assay, conditions: post-emergence, 336 h, SETFA: giant foxtail (Setaria faberi), 140 g ai/ha, 14 days after application, read-out: Visual Growth Reduction (%) 14 Days After Application SETFA
row,Compound,pest or weed control at 140 g/ha [%]
1,COC(=O)c1nc(-c2ccc(Cl)nc2F)nc(N)c1Cl [Compound 94],0 to 29

# Same assay, conditions: post-emergence, 336 h, SORVU: grain sorghum (Sorghum vulgare), 70 g ai/ha, 14 days after application, read-out: Visual Growth Reduction (%) 14 Days After Application SORVU
row,Compound,pest or weed control at 70 g/ha [%]
1,COC(=O)c1nc(-c2ccc(Cl)nc2F)nc(N)c1Cl [Compound 94],0 to 29

# Same assay, conditions: post-emergence, 336 h, SORVU: grain sorghum (Sorghum vulgare), 140 g ai/ha, 14 days after application, read-out: Visual Growth Reduction (%) 14 Days After Application SORVU
row,Compound,pest or weed control at 140 g/ha [%]
1,COC(=O)c1nc(-c2ccc(Cl)nc2F)nc(N)c1Cl [Compound 94],0 to 29

# Same assay, conditions: post-emergence, 336 h, TRZSS (crop), 70 g ai/ha, 14 days after application, read-out: Visual Growth Reduction (%) 14 Days After Application TRZSS
row,Compound,pest or weed control at 70 g/ha [%]
1,COC(=O)c1nc(-c2ccc(Cl)nc2F)nc(N)c1Cl [Compound 94],0 to 29

# Same assay, conditions: post-emergence, 336 h, TRZSS (crop), 140 g ai/ha, 14 days after application, read-out: Visual Growth Reduction (%) 14 Days After Application TRZSS
row,Compound,pest or weed control at 140 g/ha [%]
1,COC(=O)c1nc(-c2ccc(Cl)nc2F)nc(N)c1Cl [Compound 94],0 to 29

# Same assay, conditions: post-emergence, 336 h, ZEAMX: maize, corn (Zea mays), 70 g ai/ha, 14 days after application, read-out: Visual Growth Reduction (%) 14 Days After Application ZEAMX
row,Compound,pest or weed control at 70 g/ha [%]
1,COC(=O)c1nc(-c2ccc(Cl)nc2F)nc(N)c1Cl [Compound 94],0 to 29

# Same assay, conditions: post-emergence, 336 h, ZEAMX: maize, corn (Zea mays), 140 g ai/ha, 14 days after application, read-out: Visual Growth Reduction (%) 14 Days After Application ZEAMX
row,Compound,pest or weed control at 140 g/ha [%]
1,COC(=O)c1nc(-c2ccc(Cl)nc2F)nc(N)c1Cl [Compound 94],0 to 29

# System: Key Broadleaf Weed and Crop Species
# Test: Post-Emergent Test II (Table 5)
# Format: in vivo
# Conditions: Abutilon theophrasti, post-emergence, 336 h, ABUTH: velvetleaf (Abutilon theophrasti), application rate 70 (kg ai/ha; footnote: g ai/ha), read-out: Visual Growth Reduction (%) 14 Days After Application ABUTH
# Method in brief: as §1
row,Compound,pest or weed control at 70 g/ha [%]
1,COC(=O)c1nc(-c2ccc(Cl)nc2F)nc(N)c1Cl [Compound 94],0 to 29

# Same assay, conditions: Abutilon theophrasti, post-emergence, 336 h, ABUTH: velvetleaf (Abutilon theophrasti), application rate 140 (kg ai/ha; footnote: g ai/ha), read-out: Visual Growth Reduction (%) 14 Days After Application ABUTH
row,Compound,pest or weed control at 140 g/ha [%]
1,COC(=O)c1nc(-c2ccc(Cl)nc2F)nc(N)c1Cl [Compound 94],30 to 44

# Same assay, conditions: Brassica napus, post-emergence, 336 h, BRSSS: oilseed rape, canola (Brassica napus), application rate 70 (kg ai/ha; footnote: g ai/ha), read-out: Visual Growth Reduction (%) 14 Days After Application BRSSS
row,Compound,pest or weed control at 70 g/ha [%]
1,COC(=O)c1nc(-c2ccc(Cl)nc2F)nc(N)c1Cl [Compound 94],0 to 29

# Same assay, conditions: Brassica napus, post-emergence, 336 h, BRSSS: oilseed rape, canola (Brassica napus), application rate 140 (kg ai/ha; footnote: g ai/ha), read-out: Visual Growth Reduction (%) 14 Days After Application BRSSS
row,Compound,pest or weed control at 140 g/ha [%]
1,COC(=O)c1nc(-c2ccc(Cl)nc2F)nc(N)c1Cl [Compound 94],0 to 29

# Same assay, conditions: Chenopodium album, post-emergence, 336 h, CHEAL: lambsquarters (Chenopodium album), application rate 70 (kg ai/ha; footnote: g ai/ha), read-out: Visual Growth Reduction (%) 14 Days After Application CHEAL
row,Compound,pest or weed control at 70 g/ha [%]
1,COC(=O)c1nc(-c2ccc(Cl)nc2F)nc(N)c1Cl [Compound 94],60 to 74

# Same assay, conditions: Chenopodium album, post-emergence, 336 h, CHEAL: lambsquarters (Chenopodium album), application rate 140 (kg ai/ha; footnote: g ai/ha), read-out: Visual Growth Reduction (%) 14 Days After Application CHEAL
row,Compound,pest or weed control at 140 g/ha [%]
1,COC(=O)c1nc(-c2ccc(Cl)nc2F)nc(N)c1Cl [Compound 94],75 to 84

# Same assay, conditions: Euphorbia heterophylla, post-emergence, 336 h, EPHHL: wild poinsettia (Euphorbia heterophylla), application rate 70 (kg ai/ha; footnote: g ai/ha), read-out: Visual Growth Reduction (%) 14 Days After Application EPHHL
row,Compound,pest or weed control at 70 g/ha [%]
1,COC(=O)c1nc(-c2ccc(Cl)nc2F)nc(N)c1Cl [Compound 94],0 to 29

# Same assay, conditions: Euphorbia heterophylla, post-emergence, 336 h, EPHHL: wild poinsettia (Euphorbia heterophylla), application rate 140 (kg ai/ha; footnote: g ai/ha), read-out: Visual Growth Reduction (%) 14 Days After Application EPHHL
row,Compound,pest or weed control at 140 g/ha [%]
1,COC(=O)c1nc(-c2ccc(Cl)nc2F)nc(N)c1Cl [Compound 94],0 to 29

# Same assay, conditions: Helianthus annuus, post-emergence, 336 h, HELAN: sunflower (Helianthus annuus), application rate 70 (kg ai/ha; footnote: g ai/ha), read-out: Visual Growth Reduction (%) 14 Days After Application HELAN
row,Compound,pest or weed control at 70 g/ha [%]
1,COC(=O)c1nc(-c2ccc(Cl)nc2F)nc(N)c1Cl [Compound 94],30 to 44

# Same assay, conditions: Helianthus annuus, post-emergence, 336 h, HELAN: sunflower (Helianthus annuus), application rate 140 (kg ai/ha; footnote: g ai/ha), read-out: Visual Growth Reduction (%) 14 Days After Application HELAN
row,Compound,pest or weed control at 140 g/ha [%]
1,COC(=O)c1nc(-c2ccc(Cl)nc2F)nc(N)c1Cl [Compound 94],30 to 44

# Same assay, conditions: Viola tricolor, post-emergence, 336 h, VIOTR: wild pansy (Viola tricolor), application rate 70 (kg ai/ha; footnote: g ai/ha), read-out: Visual Growth Reduction (%) 14 Days After Application VIOTR
row,Compound,pest or weed control at 70 g/ha [%]
1,COC(=O)c1nc(-c2ccc(Cl)nc2F)nc(N)c1Cl [Compound 94],0 to 29

# Same assay, conditions: Viola tricolor, post-emergence, 336 h, VIOTR: wild pansy (Viola tricolor), application rate 140 (kg ai/ha; footnote: g ai/ha), read-out: Visual Growth Reduction (%) 14 Days After Application VIOTR
row,Compound,pest or weed control at 140 g/ha [%]
1,COC(=O)c1nc(-c2ccc(Cl)nc2F)nc(N)c1Cl [Compound 94],0 to 29
